Experimental data from patent US5032109A, “Electrolytic transdermal delivery of polypeptides” (Drug Delivery Systems Inc., priority 1989, dated 1991).
Where a name gives a salt, the structure may show the parent alone.

Legend:
[1] = from Herkovits et al. 1978, cited from earlier work; for Setschenow constant, for --CH2--: average hydrophobic group; for Setschenow constant, for peptide: average peptide group; for Setschenow constant, sum: peptide plus hydrophobic; for -F.° (free energy of transfer): transfer from water to water plus cosolvent
[2] = Electrical conductivity of urine in diabetes insipidus volunteers wearing Pitressin patches (Model Example 2); format: in vivo, human; conditions: powered large patch, 300 units Pitressin, five days
Procedure: Six adult male volunteers each having been diagnosed as having diabetes insipidus are tested. Three are fitted with the large-size human patch, as in Example 2, and the three controls are fitted with drug-loaded, identical patches without batteries.
The drug reservoirs of the large electrolytic patches contain 15 ml (300 units) of Pitressin (Parke-aDavis Co., Morris Plains, N.J.). The return reservoir contains 0.9 percent saline buffered to pH 7.2 with ammonium dihydrogen phosphate.
Urine samples are taken from each subject three times per day for five days.

[3] = Total urine output of beagle dogs wearing lypressin electrolytic patches (Model Example 1); format: in vivo; conditions: four beagle dogs, powered patch, 10 ua/cm^2, ten days, Diapid 0.185 mg lypressin/ml
Procedure: Eight beagle dogs are employed. All of them are clipped on the back, washed with castille soap, and fitted with the small animal electrolytic patches of Example 1, four of them without batteries.
The drug reservoir of each patch contains 6 ml. Diapid 50 USP, 0.185 mg lypressin/ml. The return reservoir contains 0.9 percent saline. A current regulator is set to deliver 10 ua/cm^2.
Over a period of ten days the total urine output of each dog is measured by standard techniques.

[4] = Blood pressure of hypertensive volunteers wearing atriopeptin patches (Model Example 3); format: in vivo, human; conditions: hypertensive female volunteers, powered patches, 0.01M atriopeptin in 0.1M sodium perchlorate, about 10 ua/cm^2
Procedure: Ten adult female volunteers, diagnosed as having hypertension, are chosen for this experiment. All are fitted with the large-size electrolytic transdermal patch, as in Example 2. […] Five control patches have no batteries. […] The blood pressure of the ten subjects is measured four times a day.

[5] = parameters: species or system human; conditions: in vivo
Excerpt: Ten adult female volunteers, diagnosed as having hypertension, are chosen for this experiment. All are fitted with the large-size electrolytic transdermal patch, as in Example 2. […] Five control patches have no batteries.

Compound	Setschenow constant, for --CH2-- [1]	Setschenow constant, for peptide [1]	Setschenow constant, sum [1]	-F.° (free energy of transfer) [1]	electrical conductivity of the urine versus control subjects (patches without batteries) [2]	average total urine volume versus control dogs (patches without batteries) [3]	average blood pressure versus controls (patches without batteries) [4]	drug delivered per hour [5]
[O-][Cl+3]([O-])([O-])O [Sodium perchlorate]	0.021	-0.097	-0.076	-104 cal/mo				
NC(=O)CC[C@@H]1NC(=O)[C@H](Cc2ccccc2)NC(=O)[C@H](Cc2ccc(O)cc2)NC(=O)[C@@H](N)CSSC[C@@H](C(=O)N2CCC[C@H]2C(=O)N[C@@H](CCCN=C(N)N)C(=O)NCC(N)=O)NC(=O)[C@H](CC(N)=O)NC1=O [Pitressin, vasopressin]					significantly higher			
C1COCCO1 [Dioxane]	-0.013	+0.029	0.016	22 cal/mo				
CCC(=O)[O-].[Na+] [Sodium proprionate]			-0.017	-23 cal/mo				
[I-].[K+] [Potassium iodide]	0.01	-0.083	-0.073	-100 cal/mo				
N=C(N)N [Guanidine hydrochloride, guanidine hydrochloride]	-0.027	-0.061	-0.088	-120 cal/mo				
[Cl-].[Na+] [Sodium chloride]	0.033	-0.037	-0.004	-5 cal/mo				
NC(N)=O [Urea]	-0.01	-0.018	-0.028	-38 cal/mo				
[Br-].[Na+] [Sodium bromide]	0.025	-0.037	-0.012	-16 cal/mo				
CCCC(=O)[O-].[Na+] [Sodium butyrate]			-0.038	-51 cal/mo				
CCO [Ethanol]	-0.014	+0.037	0.023	31 cal/mo				
NCCCC[C@H](NC(=O)[C@@H]1CCCN1C(=O)[C@@H]1CSSC[C@H](N)C(=O)N[C@@H](Cc2ccc(O)cc2)C(=O)N[C@@H](Cc2ccccc2)C(=O)N[C@@H](CCC(N)=O)C(=O)N[C@@H](CC(N)=O)C(=O)N1)C(=O)NCC(N)=O [lypressin]						significantly lower		
CCCNC(N)=O [Propylurea]			-0.047	-64 cal/mo				
atriopeptin							significantly lower	about 200 nanograms of drug per hour
[I-].[Na+] [Sodium iodide]	0.01	-0.087	-0.077	-105 cal/mo				
